SMILES strings stand for the structures.

A short description of series [1]: Water solubility of crystal forms measured by HPLC. The settings on record: 25°C. Format: physicochemical. The procedure: The water solubilities at 25°C of different crystal forms of Entinostat have been measured by HPLC and are set out in the following table: […]
Series [2] can be described thus: Compression study (hydraulic press, polymorphic form after compression). The class given is physicochemical. The settings on record: about 100 mg powder compressed to 5 tonnes/cm^2, held for 1h; slight crystallinity decrease. As to the method:
The compression study was performed using a Specac hydraulic press. A sample powder (approx. 100mg) is loaded into a metal die (ring shaped metal holder). A snugly fitted billet (a cylinder-shaped metal rod) is then placed into the die, on top of the powder sample. The die and billet assembly is then placed into the hydraulic press and compressed to a pressure of 5 tonnes/cm^2 and held under that pressure for 1h. The billet is then removed and the disc extracted from the die.

Consider `Nc1ccccc1NC(=O)c1ccc(CNC(=O)OCc2cccnc2)cc1` [Form A, (pyridin-3-yl)methyl 4-(2-aminophenylcarbamoyl)benzylcarbamate], for which, in series [1], the Water solubility stood at 48 µg/mL. In addition, in series [2], the “polymorphic form after compression” value is on record as “maintain the same polymorphic form”.
For `Nc1ccccc1NC(=O)c1ccc(CNC(=O)OCc2cccnc2)cc1` [Form B, (pyridin-3-yl)methyl 4-(2-aminophenylcarbamoyl)benzylcarbamate] the same measures were 28 µg/mL and “maintain the same polymorphic form”.
`Nc1ccccc1NC(=O)c1ccc(CNC(=O)OCc2cccnc2)cc1` [Form D, (pyridin-3-yl)methyl 4-(2-aminophenylcarbamoyl)benzylcarbamate]: the Water solubility in series [1] worked out at 130 µg/mL. Further, the “polymorphic form after compression” value in series [2] is reported as “maintain the same polymorphic form”.
